Source: patent publication US20230103631A1, “PEPTIDES AS SELECTIVE GIP RECEPTOR AGONISTS” (Sanofi, priority 2020, published 2023)
pEC50: −log10 of the molar value. *1 amine or outer side, *2 acyl side, *3 side chain or, on linkers, in order; H or OH if unused. Where a SMILES comes first, the peptide text is derived from it. Side-chain parts run from the residue outwards. [ ]: non-standard residue; d: D form. The star is where a group is joined. C20 diacid = O=C(O)CCCCCCCCCCCCCCCCCCC(=O)*; C18 diacid = O=C(O)CCCCCCCCCCCCCCCCC(=O)*; γGlu = O=C(O)[C@H](CCC(=O)[*:2])N[*:1]; NMeY = CN[C@@H](Cc1ccc(O)cc1)C(=O)O; AEEA = NCCOCCOCC(=O)O; Aib = CC(C)(N)C(=O)O

How the values were obtained:
[1] = target: T1, human GIP receptor (Homo sapiens, UniProt P48546); test: cAMP HTRF assay in human adipocytes endogenously expressing the human GIP receptor; type: cell-based; settings: for Emax: read-out: hGIPR Emax
T1 construct: human adipocytes endogenously expressing the human GIP receptor; host or cells: human preadipocytes (Lonza) differentiated to adipocytes
T1 sequence (P48546 22-466): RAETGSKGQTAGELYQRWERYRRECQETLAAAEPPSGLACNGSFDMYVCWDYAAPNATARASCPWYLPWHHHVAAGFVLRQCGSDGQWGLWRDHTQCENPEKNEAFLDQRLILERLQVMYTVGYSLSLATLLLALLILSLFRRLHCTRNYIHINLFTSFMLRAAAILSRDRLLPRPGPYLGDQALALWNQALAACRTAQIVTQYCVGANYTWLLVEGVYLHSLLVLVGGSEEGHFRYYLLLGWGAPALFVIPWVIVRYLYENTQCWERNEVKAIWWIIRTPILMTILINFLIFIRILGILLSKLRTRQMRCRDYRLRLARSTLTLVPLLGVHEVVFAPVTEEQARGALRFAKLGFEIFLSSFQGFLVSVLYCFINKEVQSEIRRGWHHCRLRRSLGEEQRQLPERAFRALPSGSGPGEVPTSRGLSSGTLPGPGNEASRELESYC
Method: For this, one vial of human preadipocytes (˜10^6 cells; Lonza) was thawed in a T-75 cell culture dish.
After 3 days, the cells were washed with PBS and 1.5 ml Trypsin, incubated for 4 min, then resuspended in medium, centrifugated for 10 min @ 300 rcf RT, resuspended again and distributed to four T-75 cell culture dishes.
After 5 days, the cells were washed with PBS and 1.5 ml Trypsin, incubated for 4 min, then resuspended in medium, centrifugated for 10 min @ 300 rcf RT, resuspended again and sawn in T-75 dishes (2.5×10^6 cells per dish) in 15 ml Differentiation medium each.
After 6 days of differentiation, 5000 cells per well were dispensed on a 96-well plate (#CLS3694 from Corning®, Sigma-Aldrich). For measurement of cAMP generation, 25 μL of test compound was added to each well of the 96-well plate, followed by incubation for 30 min at room temperature.
The cAMP generated following test compound stimulation was determined using a kit from Cisbio Corp. based on HTRF (Homogenous Time Resolved Fluorescence). The cAMP assay was performed according to manufacturer's instructions (Cisbio).
The cAMP content of cells was determined using a kit from Cisbio Corp. based on HTRF (Homogenous Time Resolved Fluorescence).

[2] = physchem; type: physicochemical; settings: for Soluble amount: 24 h, pH 7.4; for solubility at 24 h: pH 7.4, Soluble amount
Procedure, shortened: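 Peptide at 10 mg/ml (purity-corrected) in 100 mM phosphate pH 7.4, alone or with 2.7 mg/ml m-cresol; 1 h gentle agitation, then 24 h at 5 °C. Supernatant after 15 min at 2500 RCF quantified by UHPLC-UV against reference peptide, adjusted for extinction coefficients.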

[3] = Dynamic light scattering (DLS) for the assessment of physical stability; type: physicochemical; settings: DLS buffer system A
Description: A monochromatic and coherent light beam (laser) is used to illuminate the liquid sample. Dynamic Light Scattering (DLS) measures light scattered from particles (1 nm≤radius≤1 μm) that undergo Brownian motion. This motion is induced by collisions between the particles and solvent molecules, that themselves are moving due to their thermal energy. The diffusional motion of the particles results in temporal fluctuations of the scattered light (R. Pecora, Dynamic Light Scattering: Applications of Photon Correlation Spectroscopy, Plenum Press, 1985).
The scattered light intensity fluctuations are recorded and transformed into an autocorrelation function. By fitting the autocorrelation curve to an exponential function, the diffusion coefficient D of the particles in solution can be derived. The diffusion coefficient is then used to calculate the hydrodynamic radius Rh (or apparent Stokes radius) through the Stokes-Einstein equation assuming spherical particles. This calculation is defined in ISO 13321 and ISO 22412 (International Standard ISO13321 Methods for Determination of Particle Size Distribution Part 8: Photon Correlation Spectroscopy, International Organisation for Standardisation (ISO) 1996; International Standard ISO22412 Particle Size Analysis—Dynamic Light Scattering, International Organisation for Standardisation, 2008).
In case of polydisperse samples, the autocorrelation function is the sum of the exponential decays corresponding to each of the species. The temporal fluctuations of the scattered light can then be used to determine the size distribution profile of the particle fraction or family. The first order result is an intensity distribution of scattered light as a function of the particle size. The intensity distribution is naturally weighted according to the scattering intensity of each particle fraction or family. For biological materials or polymers, the particle scattering intensity is proportional to the square of the molecular weight. Thus, small amount of aggregates/agglomerates or presence or a larger particle species can dominate the intensity distribution. However, this distribution can be used as a sensitive detector for the presence of large material in the sample.
The DLS technique produces distributions with inherent peak broadening. The polydispersity index % Pd is a measure of the width of the particle size distribution and is calculated by standard methods described in ISO13321 and ISO22412 [International Standard ISO13321 Methods for Determination of Particle Size Distribution Part 8: Photon Correlation Spectroscopy, International Organisation for Standardisation (ISO) 1996; International Standard ISO22412 Particle Size Analysis—Dynamic Light Scattering, International Organisation for Standardisation (ISO) 2008].
Solutions from solid samples were prepared in buffer systems (see below) with a target concentration of 300 μM compound based on the previously determined % purity.
DLS buffer system A) 20 mM phosphate buffer pH 7.4
DLS buffer system B) 8 mM phosphate buffer pH 7.4, 14 mg/ml propylene glycol, 5.5 mg/ml phenol
DLS buffer system C) 100 mM phosphate buffer pH 7.4, 2.7 mg/ml m-cresol Solutions were filtered through 0.22 μm pore size and filled into sterilized glass containers under laminar flow conditions. For every peptide solution, the apparent hydrodynamic radius (Rh), the corresponding Scattering Intensity (I), and the Mass Contribution (M) were determined as an average over 3-6 replicates from the intensity distribution of the scattered light averaging only high-quality measurements. Relative standard deviations (RSD) for these parameters were calculated from the same number of replicates. […]

Compound	pEC50 ([1]; read-out: hGIPR EC50)	Emax [1] [%]	Soluble amount [2] [mg/mL]	solubility at 24 h [2] [µg/mL]	I and SD (Scattering Intensity) ([3]; 0 weeks) [%]	M and SD (Mass Contribution) ([3]; 0 weeks) [%]	apparent Rh and SD ([3]; 0 weeks) [nm]	I and SD (Scattering Intensity) ([3]; 4 weeks storage at 40° C.) [%]	M and SD (Mass Contribution) ([3]; 4 weeks storage at 40° C.) [%]	apparent Rh and SD ([3]; 4 weeks storage at 40° C.) [nm]
CC[C@H](C)[C@H](NC(=O)[C@H](CCCNC(=N)N)NC(=O)[C@H](CC(=O)O)NC(=O)[C@H](CCCCNC(=O)COCCOCCNC(=O)COCCOCCNC(=O)CC[C@H](NC(=O)CCCCCCCCCCCCCCCCC(=O)O)C(=O)O)NC(=O)C(C)(C)NC(=O)[C@@H](NC(=O)[C@H](CO)NC(=O)[C@H](CC(C)C)NC(=O)[C@H](CC(=O)O)NC(=O)[C@H](CO)NC(=O)[C@@H](NC(=O)[C@H](Cc1ccccc1)NC(=O)[C@@H](NC(=O)CNC(=O)[C@H](CCC(=O)O)NC(=O)C(C)(C)NC(=O)[C@H](Cc1ccc(O)cc1)NC)[C@@H](C)O)[C@@H](C)CC)[C@@H](C)CC)C(=O)N[C@@H](Cc1c[nH]cn1)C(=O)N[C@@H](CCC(N)=O)C(=O)NC(C)(C)C(=O)N[C@@H](CCC(=O)O)C(=O)N[C@@H](Cc1ccccc1)C(=O)N[C@H](C(=O)N[C@@H](CCC(=O)O)C(=O)N[C@@H](Cc1c[nH]c2ccccc12)C(=O)N[C@@H](CC(C)C)C(=O)N[C@@H](CC(C)C)C(=O)N[C@@H](C)C(=O)N[C@@H](CCC(N)=O)C(=O)NCC(=O)N1CCC[C@H]1C(=O)N[C@@H](CO)C(=O)N[C@@H](CO)C(=O)NCC(=O)N[C@@H](C)C(=O)N1CCC[C@H]1C(=O)N1CCC[C@H]1C(=O)N1CCC[C@H]1C(=O)N[C@@H](CO)C(N)=O)[C@@H](C)CC [SEQ ID NO: 8, MeHN-Y-Aib-E-G-T-F-I-S-D-I-S-I-Aib-K[{AEEA}2-gGlu-C180H]-D-R-I-H-Q-Aib-E-F--E-W-I-L-A-Q-G-P-S-S-G-A-P-P-P-S-NH2] (H-[NMeY][Aib]EGTFISDLSI[Aib]K([AEEA-AEEA-γGlu-C18 diacid])DRIHQ[Aib]EFIEWLLAQGPSSGAPPPS-NH2)	9.30	116	>6.4	> 7500	73 ± 3	100 ± 0	2.06 ± 0.03	78 ± 9	100 ± 0	2.00 ± 0.07
CC[C@H](C)[C@H](NC(=O)[C@H](Cc1ccccc1)NC(=O)[C@H](CCC(=O)O)NC(=O)[C@H](CCC(=O)O)NC(=O)[C@H](CCC(N)=O)NC(=O)[C@H](Cc1c[nH]cn1)NC(=O)[C@@H](NC(=O)[C@H](CCCNC(=N)N)NC(=O)[C@H](CC(=O)O)NC(=O)[C@H](CCCCNC(=O)COCCOCCNC(=O)COCCOCCNC(=O)CC[C@H](NC(=O)CCCCCCCCCCCCCCCCCCC(=O)O)C(=O)O)NC(=O)C(C)(C)NC(=O)[C@@H](NC(=O)[C@H](CO)NC(=O)[C@H](CC(C)C)NC(=O)[C@H](CC(=O)O)NC(=O)[C@H](CO)NC(=O)[C@@H](NC(=O)[C@H](Cc1ccccc1)NC(=O)[C@@H](NC(=O)CNC(=O)[C@H](CCC(=O)O)NC(=O)C(C)(C)NC(=O)[C@@H](N)Cc1ccc(O)cc1)[C@@H](C)O)[C@@H](C)CC)[C@@H](C)CC)[C@@H](C)CC)C(=O)N[C@@H](CCC(=O)O)C(=O)N[C@@H](Cc1c[nH]c2ccccc12)C(=O)N[C@@H](CC(C)C)C(=O)N[C@@H](CC(C)C)C(=O)N[C@@H](C)C(=O)N[C@@H](CCC(N)=O)C(=O)NCC(=O)N1CCC[C@H]1C(=O)N[C@@H](CO)C(=O)N[C@@H](CO)C(=O)NCC(=O)N[C@@H](C)C(=O)N1CCC[C@H]1C(=O)N1CCC[C@H]1C(=O)N1CCC[C@H]1C(=O)N[C@@H](CO)C(N)=O [SEQ ID NO: 10, H2N-Y-Aib-E-G-T-F-I-S-D-I-S-I-Aib-K[{AEEA}2-gGlu-C20OH]-DRIHQEEFIEWILAQGPSSGAPPPS-NH2] (H-Y[Aib]EGTFISDLSI[Aib]K([AEEA-AEEA-γGlu-C20 diacid])DRIHQEEFIEWLLAQGPSSGAPPPS-NH2)	–	127	>8.1	> 8000	60 ± 3	100 ± 0	1.97 ± 0.03	75 ± 3	100 ± 0	1.91 ± 0.04
CC[C@H](C)[C@H](NC(=O)[C@H](Cc1ccccc1)NC(=O)[C@H](CCC(=O)O)NC(=O)[C@H](CCC(=O)O)NC(=O)[C@H](CCC(N)=O)NC(=O)[C@H](Cc1c[nH]cn1)NC(=O)[C@@H](NC(=O)[C@H](CCCNC(=N)N)NC(=O)[C@H](CC(=O)O)NC(=O)[C@H](CCCCNC(=O)COCCOCCNC(=O)COCCOCCNC(=O)CC[C@H](NC(=O)CCCCCCCCCCCCCCCCC(=O)O)C(=O)O)NC(=O)C(C)(C)NC(=O)[C@@H](NC(=O)[C@H](CO)NC(=O)[C@H](CC(C)C)NC(=O)[C@H](CC(=O)O)NC(=O)[C@H](CO)NC(=O)[C@@H](NC(=O)[C@H](Cc1ccccc1)NC(=O)[C@@H](NC(=O)CNC(=O)[C@H](CCC(=O)O)NC(=O)C(C)(C)NC(=O)[C@@H](N)Cc1ccc(O)cc1)[C@@H](C)O)[C@@H](C)CC)[C@@H](C)CC)[C@@H](C)CC)C(=O)N[C@@H](CCC(=O)O)C(=O)N[C@@H](Cc1c[nH]c2ccccc12)C(=O)N[C@@H](CC(C)C)C(=O)N[C@@H](CC(C)C)C(=O)N[C@@H](C)C(=O)N[C@@H](CCC(N)=O)C(=O)NCC(=O)N1CCC[C@H]1C(=O)N[C@@H](CO)C(=O)N[C@@H](CO)C(=O)NCC(=O)N[C@@H](C)C(=O)N1CCC[C@H]1C(=O)N1CCC[C@H]1C(=O)N1CCC[C@H]1C(=O)N[C@@H](CO)C(=O)O [SEQ ID NO: 11, H2N-Y-Aib-E-G-T-F-I-S-D-I-S-I-Aib-K[{AEEA}2-gGlu-C18OH]-DRIHQEEFIEWILAQGPSSGAPPPS-OH] (H-Y[Aib]EGTFISDLSI[Aib]K([AEEA-AEEA-γGlu-C18 diacid])DRIHQEEFIEWLLAQGPSSGAPPPS-OH)	–	122	>9.8	> 9800	96 ± 1	100 ± 0	1.82 ± 0.04	85 ± 2	100 ± 0	1.83 ± 0.05
